Laboratory results published in ChEMBL document CHEMBL1287765, “Discovery of novel quinolinone adenosine A2B antagonists” (Bioorg Med Chem Lett, 2010).

Assay: Aqueous solubility of compound
Type: physicochemical
Details: buffer

Structure (SMILES)	solubility
COc1ccc2[nH]c(=O)c(S(C)(=O)=O)c(CCc3ccccc3)c2c1	Insoluble
CN(Cc1ccc(Cl)c(Cl)c1)C(=O)COc1ccc2[nH]c(=O)c(S(C)(=O)=O)c(CCc3ccccc3)c2c1	Insoluble
Cn1c(=O)c(S(C)(=O)=O)c(CCc2ccccc2)c2cc(OCC(=O)NCc3ccc(Cl)c(Cl)c3)ccc21	Insoluble

Now from value to molecule:

solubility	Structure (SMILES)
Insoluble	CS(=O)(=O)c1c(CCc2ccccc2)c2cc(OCC(=O)Nc3ccccc3)ccc2[nH]c1=O
Insoluble	CS(=O)(=O)c1c(CCc2ccccc2)c2cc(OCC(=O)NCC3CC3)ccc2[nH]c1=O
Insoluble	CS(=O)(=O)c1c(CCc2ccccc2)c2cc(OCC(=O)NCc3ccc(Cl)c(Cl)c3)ccc2[nH]c1=O
Insoluble	COCCCNC(=O)COc1ccc2[nH]c(=O)c(S(C)(=O)=O)c(CCc3ccccc3)c2c1
Insoluble	CS(=O)(=O)c1c(CCc2ccccc2)c2cc(OCC(=O)NCc3ccccc3)ccc2[nH]c1=O
